Measured values: patent US6486157B1, “Use of insecticides in pest control” (priority 1998, dated 2002)

Assays:
Assay type in all cases: in vivo
[1] = system: Frankliniella occidentalis; experiment: Transgenic vs conventional cotton seedlings, action against Frankliniella occidentalis; settings: 20° C.; for control on the plants of plot (a) (% action): spray 400 ppm, evaluated after 3 and 6 days; for control level, plot (b): plot (b) conventional cotton seedlings, 3 and 6 days
Protocol: (§1) Cotton seedlings expressing the δ-endotoxin Crylila on a plot (a) and conventional cotton seedlings on a plot (b) are infected with Frankliniella occidentalis and subsequently sprayed with a spray mixture comprising 400 ppm lufenuron. Immediately afterwards, plot (b) is treated with an emulsion spray mixture comprising 400 ppm of the S-endotoxin CrylIla. The seedlings of plot (a) and (b) are then incubated at 20° C. The test is evaluated after 3 and 6 days.
(§2) The percentage reduction in population (% action) is determined by comparing the number of dead pests on the plants of plot (a) with that on the plants of plot (b).
as §1, with “CryIa(c)” for “Crylila”, “δ-endotoxin CryIa(c).” for “S-endotoxin CrylIla.”

Anthonomus grandis = experiment: Spray test on young transgenic cotton plants, action against Anthonomus grandis adults; settings: for control of the tested insects in the non-transgenic plant (% action): non-transgenic cotton, spray mixture of active ingredient and conventional CryIIIA-toxin, each 100, 50, 10, 5, 1 ppm, 3 to 10 days; for control of the tested insects in the transgenic plant (% action): spray 100, 50, 10, 5, 1 ppm, evaluation 3 to 10 days, compared with treated non-transgenic cotton
Description: (§3) Young transgenic cotton plants which express the δ-endotoxin CryIIIA are sprayed with an aqueous emulsion spray mixture comprising 100, 50, 10, 5, 1 ppm of profenofos respectively. After the spray coating has dried on, the cotton plants are populated with 10 adult Anthonomus grandis, 10 Spodoptera littora larvae or 10 Heliothis virescens larvae respectively and introduced into a plastic container. Evaluation takes place 3 to 10 days later. The percentage reduction in population, or the percentage reduction in feeding damage (% action), is determined by comparing the number of dead beetles and the feeding damage on the transgenic cotton plants with that of non-transgenic cotton plants which have been treated with an emulsion spray mixture comprising lufenuron and conventional CryIIIA-toxin at a concentration of in each case 100, 50, 10, 5, 1 ppm respectively.
as §3, with “pymetrozine” for “lufenuron”
as §3, with “express tho” for “express the”, “δ-endotoxin CryIa (c)” for “δ-endotoxin CryIIIA”, “of fenoxycarb” for “of profenofos”, “comprising fenoxycarb” for “comprising lufenuron”, “and con-ventional” for “and conventional”
as §3, with “δ-endotoxin CryIa(c)” for “δ-endotoxin CryIIIA”, “of fenoxycarb” for “of profenofos”, “comprising fenoxycarb” for “comprising lufenuron”
(§4) Young transgenic cotton plants which express the δ-endotoxin CryIa(c) are sprayed with an aqueous emulsion spray mixture comprising 100, 50, 10, 5, 1 ppm of pymetrozine respectively. After the spray coating has dried on, the cotton plants are populated with 10 adult Anthonomus grandis, 10 Spodoptera littora larvae or 10 Heliothis virescens larvae respectively and introduced into a plastic container. Evaluation takes place 3 to 10 days later. […]

Spodoptera spp. = experiment: Plot test on maize cv. KnockOut vs conventional maize, action against Spodoptera spp.; settings: natural infestation; for control on the plants of plot (a) (% action): plot (a) maize cv. KnockOut, spray 200, 100, 50, 10, 5, 1 ppm, evaluation 6 days later; for control level, plot (b): plot (b) conventional maize, spray 200, 100, 50, 10, 5, 1 ppm plus same ppm of the endotoxin expressed by KnockOut, 6 days
Protocol: (§5) A plot (a) planted with maize cv. KnockOut® and an adjacent plot (b) of the same size which is planted with conventional maize, both showing natural infestation with Ostrinia nubilalis, Spodoptera sp or Heliothis, are sprayed with an aqueous emulsion spray mixture comprising 200, 100, 50, 10, 5, 1 ppm of fenoxycarb . Immediately afterwards, plot (b) is treated with an emulsion spray mixture comprising 200, 100, 50, 10, 5, 1 ppm of the endotoxin expressed by KnockOut®. Evaluation takes place 6 days later. The percentage reduction in population (% action) is determined by comparing the number of dead pests on the plants of plot (a) with that on the plants of plot (b).
as §5, with “pymetrozine.” for “fenoxycarb .”
(§6) A plot (a) planted with maize cv. KnockOut® and an adjacent plot (b) of the same size which is planted with conventional maize, both showing natural infestation with Ostrinia nubilalis. Spodoptera sp or Heliothis, are sprayed with an aqueous emulsion spray mixture comprising 200, 100, 50, 10, 5, 1ppm of lufenuron. Immediately afterwards, plot (b) is treated with an emulsion spray mixture comprising 200, 100, 50, 10, 5, 1 ppm of the endotoxin expressed by KnockOut®. Evaluation takes place 6 days later. The percentage reduction in population (% action) is determined by comparing the number of dead pests on the plants of plot (a) with that on the plants of plot (b).

Heliothis spp. = experiment: Plot test on maize cv. KnockOut vs conventional maize, action against Heliothis spp.; settings: natural infestation; for control on the plants of plot (a) (% action): plot (a) maize cv. KnockOut, spray 200, 100, 50, 10, 5, 1 ppm, evaluation 6 days later; for control level, plot (b): plot (b) conventional maize, spray 200, 100, 50, 10, 5, 1 ppm plus same ppm of the endotoxin expressed by KnockOut, 6 days
Protocol: as §5
as §5, with “pymetrozine.” for “fenoxycarb .”
as §6

Spodoptera littoralis = experiment: Spray test on young transgenic cotton plants, action against Spodoptera littoralis larvae; settings: for control of the tested insects in the non-transgenic plant (% action): non-transgenic cotton, spray mixture of active ingredient and conventional CryIIIA-toxin, each 100, 50, 10, 5, 1 ppm, 3 to 10 days; for control of the tested insects in the transgenic plant (% action): spray 100, 50, 10, 5, 1 ppm, evaluation 3 to 10 days, compared with treated non-transgenic cotton
Description: as §3
as §3, with “pymetrozine” for “lufenuron”
as §3, with “express tho” for “express the”, “δ-endotoxin CryIa (c)” for “δ-endotoxin CryIIIA”, “of fenoxycarb” for “of profenofos”, “comprising fenoxycarb” for “comprising lufenuron”, “and con-ventional” for “and conventional”
as §3, with “δ-endotoxin CryIa(c)” for “δ-endotoxin CryIIIA”, “of fenoxycarb” for “of profenofos”, “comprising fenoxycarb” for “comprising lufenuron”
as §4

Heliothis virescens = experiment: Spray test on young transgenic cotton plants, action against Heliothis virescens larvae; settings: for control of the tested insects in the non-transgenic plant (% action): non-transgenic cotton, spray mixture of active ingredient and conventional CryIIIA-toxin, each 100, 50, 10, 5, 1 ppm, 3 to 10 days; for control of the tested insects in the transgenic plant (% action): spray 100, 50, 10, 5, 1 ppm, evaluation 3 to 10 days, compared with treated non-transgenic cotton
Description: as §3
as §3, with “pymetrozine” for “lufenuron”
as §3, with “express tho” for “express the”, “δ-endotoxin CryIa (c)” for “δ-endotoxin CryIIIA”, “of fenoxycarb” for “of profenofos”, “comprising fenoxycarb” for “comprising lufenuron”, “and con-ventional” for “and conventional”
as §3, with “δ-endotoxin CryIa(c)” for “δ-endotoxin CryIIIA”, “of fenoxycarb” for “of profenofos”, “comprising fenoxycarb” for “comprising lufenuron”
as §4

Ostrinia nubilalis = experiment: Plot test on maize cv. KnockOut vs conventional maize, action against Ostrinia nubilalis; settings: natural infestation; for control on the plants of plot (a) (% action): plot (a) maize cv. KnockOut, spray 200, 100, 50, 10, 5, 1 ppm, evaluation 6 days later; for control level, plot (b): plot (b) conventional maize, spray 200, 100, 50, 10, 5, 1 ppm plus same ppm of the endotoxin expressed by KnockOut, 6 days
Protocol: as §5
as §5, with “pymetrozine.” for “fenoxycarb .”
as §6

Aphis gossypii = experiment: Transgenic vs conventional cotton seedlings, action against Aphis gossypii; settings: 20° C.; for control on the plants of plot (a) (% action): spray 400 ppm, evaluated after 3 and 6 days; for control level, plot (b): plot (b) conventional cotton seedlings, 3 and 6 days
Protocol: (§7) Cotton seedlings on a plot (a) expressing the δ-endotoxin CryllIa on a plot (a) and conven-tional cotton seedlings on a plot (b) are infected with Aphis gossypi and subsequently sprayed with a spray mixture comprising 400 ppm pymetrozine. immediately afterwards, plot (b) is treated with an emulsion spray mixture comprising 400 ppm of the δ-endotoxin Crylila. The seedlings of plot (a) and (b) are then incubated at 20° C. The test is evaluated after 3 and 6 days.
as §2
as §7, with “seedlings” for “seedlings on a plot (a)”, “CryIA(c)” for “CryllIa”, “conventional” for “conven-tional”, “gossypii” for “gossypi”, “Immediately” for “immediately”, “[…].” for “Crylila.”

[2] = plot (a) cotton seedlings expressing δ-endotoxin CryIa(c)
[3] = transgenic cotton expressing δ-endotoxin CryIa(c)
[4] = transgenic cotton expressing δ-endotoxin CryIIIA

Row | Structure (SMILES) | control of the tested insects in the non-transgenic plant (% action) (Anthonomus grandis) | control of the tested insects in the transgenic plant (% action) (Anthonomus grandis; [3]) | control on the plants of plot (a) (% action) (Spodoptera spp.) | control level, plot (b) (Spodoptera spp.) | control on the plants of plot (a) (% action) (Heliothis spp.) | control level, plot (b) (Heliothis spp.) | control of the tested insects in the non-transgenic plant (% action) (Spodoptera littoralis) | control of the tested insects in the transgenic plant (% action) (Spodoptera littoralis; [3]) | control of the tested insects in the non-transgenic plant (% action) (Heliothis virescens) | control of the tested insects in the transgenic plant (% action) (Heliothis virescens; [3]) | control on the plants of plot (a) (% action) (Ostrinia nubilalis) | control level, plot (b) (Ostrinia nubilalis) | further results
1 | O=C(NC(=O)c1c(F)cccc1F)Nc1cc(Cl)c(OC(F)(F)C(F)C(F)(F)F)cc1Cl (centres unmarked) [lufenuron] | insufficient | superior | Improved control | ≤ 60% | Improved control | ≤ 60% | insufficient | superior | insufficient | superior | Improved control | ≤ 60% | control on the plants of plot (a) (% action) [1, 2]: Improved control; control on the plants of plot (a) (% action) ([1]; plot (a) cotton seedlings expressing δ-endotoxin Crylila): Improved control; control level, plot (b) ([1]; spray 400 ppm plus 400 ppm of endotoxin CrylIla): ≤ 60%; control level, plot (b) ([1]; spray 400 ppm plus 400 ppm of δ-endotoxin CryIa(c)): ≤ 60%
2 | CCOC(=O)NCCOc1ccc(Oc2ccccc2)cc1 [fenoxycarb, Ethyl 2-(4-Phenoxyphenoxy)ethylcarbamat] | insufficient | superior | Improved control | ≤ 60% | Improved control | ≤ 60% | insufficient | superior | insufficient | superior | Improved control | ≤ 60% | –
3 | CC1=NNC(=O)N(N=Cc2cccnc2)C1 [pymetrozine, 2,3,4,5-Tetrahydro-3-oxo-4-[(pyridin-3-yl)-methylenamino]-6-methyl-1,2,4-triazin] | insufficient | superior | Improved control | ≤ 60% | Improved control | ≤ 60% | insufficient | superior | insufficient | superior | Improved control | ≤ 60% | control on the plants of plot (a) (% action) (Aphis gossypii; [2]): Improved control; control on the plants of plot (a) (% action) (Aphis gossypii; plot (a) cotton seedlings expressing δ-endotoxin CryllIa): Improved control; control level, plot (b) (Aphis gossypii; spray 400 ppm plus 400 ppm of δ-endotoxin Crylila): ≤ 60%; control level, plot (b) (Aphis gossypii; spray 400 ppm plus 400 ppm of δ-endotoxin Crylla): ≤ 60%
4 | CCCSP(=O)(OCC)Oc1ccc(Br)cc1Cl (centres unmarked) [profenofos, O-4-Brom-2-chlorphenyl O-Ethyl S-Propyl Phosphorothioat] | – | – | – | – | – | – | – | – | – | – | – | – | control of the tested insects in the transgenic plant (% action) (Anthonomus grandis; [4]): superior; control of the tested insects in the transgenic plant (% action) (Spodoptera littoralis; [4]): superior; control of the tested insects in the transgenic plant (% action) (Heliothis virescens; [4]): superior
